From patent US10654834B2 (Venenum Biodesign, LLC, priority 2016, dated 2020) come the findings set out here.

Read-outs that look alike come from different tables or passages of the source.

Series [1] is described as follows: Plasma concentrations after chronic dosing (5 days) in DIO mice. To be noted: after second and tenth dose, 0-12 h. It counts as in vivo, mouse. The method, then:
Plasma Concentrations after Chronic Dosing of Compound
In the study, the plasma level of compounds of the present invention (i.e., Compound 268) was monitored at day 1 and day 5. The same animal protocol as described in Examples 87 and 88 was utilized.
FIG. 14 depicts the plasma concentration of Compound 268 at 0, 3, 6, 9, and 12 hours after the second and at 3, 6, 9, and 12 hours after the tenth dose. […] No significant increases were observed over time.

A further series deals with GLP-1. Briefly: GLP-1 levels after 6 weeks of dosing in DIO mice. The class given is in vivo, mouse. Particulars: 30 mg/kg + sitagliptin 10 mg/kg BID, 6 h after final dose, versus sitagliptin alone. The text has this: In the next series of studies (Examples 93-99), Male DIO mice were received at 12 weeks of age (from Taconic), and were single-housed at the testing facility and acclimated for at least 2 weeks. The mice were provided a high fat diet [Research Diet D12492 (60% Fat kcal)] while in the testing facility. Before the study initiation, the animals were randomized into 5 experimental groups by body weight. The vehicle group contained only 0.5% carboxymethylcellulose (medium viscosity)+0.25% Tween-80. The second group contained 10 mg/kg of the DPP-IV inhibitor Sitagliptin while the third group contained 30 mg/kg Compound 268. The fourth group contained the combination of 10 mg/kg Sitagliptin and 30 mg/kg Compound 268. The fifth group was the positive control for weight loss, Rimonabant. All mice were dosed BID at approximately 6:00 am and again at approximately 4:00 pm. The positive control rimonabant was administered at a dose of 10 mg/kg in the afternoon and the morning dosing was vehicle (no compound). […]
Compounds of the present invention were dosed for multiple weeks and were evaluated to determine if they produce sustained GLP-1 levels.
In this example, the protocol from Example 93 was utilized. […] The active form of GLP-1 [GLP-1 (7-36) amide] was analyzed using Meso Scale Discovery System according to the manufacturer's directions (item number K150HYC). […]

The nature of series [2]: Bile weight after 6 weeks of dosing in DIO mice. Particulars: about 6 h after final dose. The class given is in vivo, mouse. The source says:
(§1) In the next series of studies (Examples 93-99), Male DIO mice were received at 12 weeks of age (from Taconic), and were single-housed at the testing facility and acclimated for at least 2 weeks. The mice were provided a high fat diet [Research Diet D12492 (60% Fat kcal)] while in the testing facility. Before the study initiation, the animals were randomized into 5 experimental groups by body weight. The vehicle group contained only 0.5% carboxymethylcellulose (medium viscosity)+0.25% Tween-80. The second group contained 10 mg/kg of the DPP-IV inhibitor Sitagliptin while the third group contained 30 mg/kg Compound 268. The fourth group contained the combination of 10 mg/kg Sitagliptin and 30 mg/kg Compound 268. The fifth group was the positive control for weight loss, Rimonabant. All mice were dosed BID at approximately 6:00 am and again at approximately 4:00 pm. The positive control rimonabant was administered at a dose of 10 mg/kg in the afternoon and the morning dosing was vehicle (no compound).
No Bile Weight Increase after 6 Weeks of Dosing Compounds
Compounds of the present invention were dosed for multiple weeks and were evaluated to determine if they lead to an increase in bile weight.
In this example, the protocol from Example 93 was utilized. […]

Series [3] in a line: Bile weight after chronic dosing (5 days) in DIO mice. The class given is in vivo, mouse. Particulars: 30 mg/kg + sitagliptin 10 mg/kg, after second and tenth treatment, versus sitagliptin alone. How it is done:
Bile Weight after Chronic Dosing of Compounds
In this study, chronic dosing of compounds of the present invention was examined to determine if they lead to an increase in bile weight.
FIG. 13 depicts the time course of bile weight changes over time (i.e., 0, 3, 6, 9, and 12 hours) after the second and the tenth treatment with Compound 268 using the protocol in Example 87.

A short description of series [4]: Portal vein versus systemic pharmacokinetics in hepatic portal vein cannulated CD(SD) rats. Particulars: male, rat, 10 mg/kg oral; for AUC(0-t): read-out: AUC (0→7 h). It counts as in vivo. How it is done:
Low Level of Compounds is Attributed to Low Intestinal Absorption
In this study, we determined if low plasma level of the compounds of the present invention is due to low absorption in the gut, or due to the first pass effect (i.e., absorption followed by a rapid degradation of compounds by liver). Hepatic portal vein cannulated male CD(SD) rats obtained from Charles River Laboratory were utilized. In brief, Compound 268 was administered orally at 10 mg/kg, and the blood was obtained simultaneously from the portal vein and systemic circulation (retro-orbital sinus) at predose, 0.25, 0.5, 1, 2, and 4 hours post-dose, in EDTA coated tubes. The samples were processed into plasma and quantification of compound levels in the plasma was accomplished by means of LC-MS/MS analysis as described in Example 81.

Series [5] is described as follows: 6-week DEXA body composition analysis in DIO mice. The class given is in vivo, mouse. To be noted: 6 weeks BID dosing.
Excerpt: as §1
6-Week Dexa Analysis after Multiple Weeks of Dosing Compounds
Compounds of the present invention were dosed for multiple weeks and the mice were analyzed to determine whether weight loss seen in Example 93 was due to a loss in fat or lean mass.
In this example, the protocol from Example 93 was utilized. The day of experiment, the mice were anesthetized using 2.5% avertin [tert-amyl alcohol (Aldrich #15,256-3) and 2,2,2-tribromoethanol (Aldrich # T4, 840-2)]. Their body composition was assessed using the PIXImus2 X-ray unit (GE Lunar Corporation, Madison, Wis.) connected to a computer equipped with LUNAR PIXImus2 software. The head region of each mouse was excluded from the analysis. The following measurements were automatically measured or calculated by the PIXImus2 software: bone mineral density (BMD), bone mineral content (BMC), bone area (B Area), tissue area (T Area), percent fat, and total tissue mass (TTM). Fat mass, the percentage of lean mass, and lean mass, were calculated manually as follows: % Lean=100−% Fat Lean Mass=TTM×(100−% Fat) Fat Mass=TTM×% Fat

Setting [6] is: plasma (portal vein blood), Portal Vein bleed.
Where [7] appears, read: plasma (systemic blood), Peripheral bleed (retro-orbital sinus).

As usually defined, the Cmax is the highest concentration seen after dosing. The term Tmax denotes the time from dosing to the highest level. As for `N#Cc1ccc(CCNC(=O)[C@@H]2CCN2c2cc(N3CCC(CCNC(=O)NCCC(=O)O)CC3)nc(C(F)(F)F)n2)cc1` [Compound 268, (S)-3-(3-(2-(1-(6-(2-((4-cyanophenethyl)carbamoyl)azetidin-1-yl)-2-(trifluoromethyl)pyrimidin-4-yl)piperidin-4-yl)ethyl)ureido)propanoic acid], in series [1], the “plasma level of compound after chronic dosing” value was “maintained at a low concentration level”. Moreover, the “plasma GLP-1 level after 6 weeks of dosing” value with GLP-1 is reported as “significantly increased level of GLP-1”. The “bile weight / gallbladder size after 6 weeks of dosing” value in series [2] is “does not show an increase in size”. Further, the “bile weight after chronic dosing” value in series [3] was “no significant changes in bile weight”. Further, in series [4] (setting [6]), the Cmax was 15.7 ± 6.7 ng/mL, the Tmax was 15 to 60 min and the AUC(0-t) amounted to 49.1 ± 47.3 ng·h/mL. In series [4] (setting [7]), the Cmax was found to be 43.9 ± 50.2 ng/mL, the Tmax lay in the range of 15 to 60 min and the AUC(0-t) was 76.2 ± 84.3 ng·h/mL. Moreover, in series [5], the “fat mass versus lean mass (DEXA)” value is “due to a loss in the Fat Mass” and the “loss in weight / total tissue mass (DEXA)” value is “about the same loss in weight”.
